One molecule from patent publication US20200129482A1, “TREATMENT OF NON-SMALL CELL LUNG CANCER” (AbbVie Inc., priority 2017, published 2020) can be followed below.

Assay [1] relates to NSCLC patients. The assay can be described thus: M10-898 clinical trial: survival by LSP status, C/P+veliparib vs C/P. The assay is classed as in vivo, human. Conditions: C/P+veliparib vs carboplatin/paclitaxel (C/P), FIG. 1 left. The source says:
(§1) Time to death (overall survival, OS) for a given subject was defined as the number of days from the date that the subject was randomized to the date of the subject's death. All events of death were included, regardless of whether the event occurred while the subject was still taking veliparib/placebo or had previously discontinued veliparib/placebo.
(§2) Tumor samples for study were from biopsies taken prior to entry onto veliparib clinical trials M10-898 and M11-089. Tumor DNA/RNA was obtained by macrodissecting tumor area (>50% tumor content) from formalin-fixed, paraffin-embedded tumor slides. RNA and DNA was isolated using AllPrep kit (Qiagen).
RNAseq RPKM data of 52 LSP genes of Table 1 were obtained from sequenced samples of M10-898 clinical trial (https://clinicaltrials.gov/ct2/show/NCT01560104), purchased tissues and M11-089 (https://clinicaltrials.gov/ct2/show/NCT02106546). The RPKM data was log transformed and normalized in order to adjust for batch effects before entering the analyses. […]
FIG. 1 represents the impact of treatment and patient outcome in M10-898 as a function of LSP status in M10-898 (left) and M11-089 (right). […] The restricted mean survival time was calculated and is represented on the Y-axis.

The test system of assay [2] is NSCLC patients. The assay can be described thus: M11-089 clinical trial: survival by LSP status or stemness score, C/P+veliparib vs C/P. The assay is classed as in vivo, human. The note with it: for median overall survival in LSP- and LSP+ patients / survival (restricted mean survival time, hazard ratio) as a function of LSP status: M11-089; for median overall survival in LSP- and LSP+ patients: C/P+veliparib vs C/P alone, FIG. 2; for survival (restricted mean survival time, hazard ratio) as a function of LSP status: C/P+veliparib vs carboplatin/paclitaxel (C/P), LSP+ vs LSP- patients, FIG. 1 right; for survival in relation to stemness score (mRNAsi): M11-089 samples, stemness score >=0.5 vs <0.5, FIGS. 4 and 5.
Text: as §1, §2
RNAseq RPKM data of 52 LSP genes of Table 1 were obtained from sequenced samples of M10-898 clinical trial (https://clinicaltrials.gov/ct2/show/NCT01560104), purchased tissues and M11-089 (https://clinicaltrials.gov/ct2/show/NCT02106546). The RPKM data was log transformed and normalized in order to adjust for batch effects before entering the analyses. Unsupervised Clustering was performed on 52 LSP genes from M10-898 and purchased tissues to form 3 clusters of subtypes (AD (Adenocarcinoma), NE (Neuroendocrine), SQ (Squamous)), according to the consistency of known histology defined biologically distinct subtypes. The 52 LSP genes from M10-898 and purchased tissues together with the AD vs. nonAD labelling from unsupervised clustering is served as the training data. A shrunken centroid classifier is built based on the training data. The final classifier takes normalized RPKM data of 52 LSP genes as input, and outputs the probability of being nonAD subtype (prob (AD)=1-prob (nonAD)) for each RNAseq sample from M11-089. The subtype calls (nonAD vs. AD) is based on the probability strength. The subtype call will be labelled unknown If the absolute logarithm of odds (defined as Prob (nonAD)/Prob (AD)) is less than 0.15.
FIG. 1 represents the impact of treatment and patient outcome in M10-898 as a function of LSP status in M10-898 (left) and M11-089 (right). Patients were categorized as LSP− or LSP+ using RNA expression as depicted on the x-axis. Patients treated with carboplatin/paclitaxel (C/P) are listed in dotted lines, patients treated with C/P+veliparib (V) are listed in solid lines. The restricted mean survival time was calculated and is represented on the Y-axis.
Summary statistics for each comparison are shown below FIG. 2.
We examined the M11-089 samples to relate the stemness index to survival with Veliparib. In general, an index ranging from 0 to 1 is created for each tumor sample. Tumor cells closer to 1 are more similar to stem cells and more aggressive than tumor cells closer to 0.
We derived the stemness score from our samples based on stemness Index Derived using OCLR (mRNAsi) (T. M. Matta, et al., Cell, 2018, 173(2): 338-354), and methodology and code reference is based on the public available information (http://tcgabiolinks.fmrp.usp.br/PanCanStem/mRNAsi.html). The log gene expression for m11-089 is the batch effect corrected combined batch 1,2,3,4 data.

Each structure is given as a SMILES string. Entries after “also recorded” stand apart in the source; their conditions may differ.

In the case of `C[C@]1(c2nc3c(C(N)=O)cccc3[nH]2)CCCN1` [Veliparib, veliparib], the “survival (restricted mean survival time, hazard ratio) as a function of LSP status” value in assay [1] is “statistically significant survival advantage only in the LSP+ population”; in assay [1] (listed as veliparib), “benefit observed in signature subgroup”; in assay [2] it was “statistically significant survival advantage only in the LSP+ population”; in assay [2] (listed as veliparib), “benefit observed in signature subgroup”. Further, the “median overall survival in LSP- and LSP+ patients” value was “statistically significant survival advantage only in the LSP+ population” in assay [2] and “increased Overall Survival (OS) observed in LSP positive NSCLC patients” in assay [2] (listed as veliparib). Also, the “survival in relation to stemness score (mRNAsi)” value is “better survival” in assay [2] and “better survival; also recorded: provides a benefit to subgroup of patients” in assay [2] (listed as veliparib).
